Entries after “also recorded” stand apart in the source; their conditions may differ. Where two headings read alike, the source gives them in different places.
How the values were obtained:
rat MOR = target: T1, rat MOR (Rattus norvegicus, UniProt P33535); test: Radioligand equilibrium competition binding, MOR; settings: [3H]DAMGO; membranes from CHO cells expressing rat MOR; mean ± SEM, at least three experiments
T1 construct: expressed in transfected cells

[1] = Metabolic stability in mouse liver microsomes; format: in vitro ADME; settings: pH 7.4, 5 µM peptide, 0.25 mg/mL protein, with NADPH, 37 °C, read-out: t1/2 in mouse liver microsomes
Method: The macrocyclic tetrapeptide (5 µM) in 1% acetonitrile was incubated with mouse liver microsomes (0.25 mg/mL protein, Xenotech, Lenexa, KS, USA) at 37 °C in the presence or absence of co-factor NADPH RapidStart System (1 mM, Xenotech) or NADPH solution (Sigma, St. Louis, MO, USA) in potassium phosphate buffer (50 mM, pH 7.4). Aliquots (100 µL) taken at 0, 5, 15, 30, 60 and 120 min were quenched with ice-cold acetonitrile (1 vol) containing internal standard ([D-NMeAla^2]CJ-15,208 [26], 5 µM) to precipitate the proteins. The lack of endogenous interference with the analysis of the stereoisomer or internal standard was confirmed by analyzing samples lacking the macrocyclic tetrapeptide.
Following centrifugation at 10,000× g rpm for 10 min, the supernatant (50 µL) was diluted with water (75 µL), stored overnight at −20 °C and analyzed by LC-MS/MS using methodology similar to that described for [D-Trp]CJ-15,208 [32]. Liquid chromatography was performed on a Hypersil BDS C8 column (50 mm × 2.1 mm, 3 µm) with a flow rate of 0.2 mL/min and an injection volume of 20 µL using an Acquity UPLC system (Waters, Milford, MA, USA). The peptides were separated using a gradient of aqueous acetonitrile containing 0.08% formic acid of 20% B (0–2 min), 20–50% B (2–3 min), 50–80% B (3–6 min), 80% B (6–7 min), 80–20% B (7–8 min) and 20% B (8–10 min).
ESI-MS/MS was performed on a Waters Quatro triple quadrupole instrument operating in the positive ion multiple reaction monitoring mode. Data acquisition was carried out with Mass Lynx 4.1 software with the following settings: capillary voltage, 2500 V; cone voltage, 30 V; source temperature, 100 °C; desolvation temperature, 250 °C; cone gas flow, 279 L/h; desolvation gas flow, 1157 L/h; LM 1 resolution, 14; HM 1 resolution, 14; ion energy 1, 1.0; MS/MS mode entrance, -1; MS/MS collision energy, 35 eV; MS/MS mode exit, 2; LM 2 resolution, 13.0; HM 2 resolution, 13.0; ion energy 2, 1.5; multiplier, 650; collision cell pressure, 1.63 × 10^−3 mbar; collision gas, argon. The transition m/z 578.2 ([M + H]^+) → 217.2 was monitored to determine the peak area counts of the stereoisomers, and m/z 566.2 ([M + H]^+) → 232.9 was monitored to determine the peak area counts of the internal standard (collision energy 22 eV) with the following settings: dwell time, 0.3 s; delay, 0.05 s.

C57BL/6J mice [2] = test: 55 °C warm-water tail-withdrawal assay (antinociception); format: in vivo, mouse
Method: For intracerebroventricular (i.c.v.) administration the macrocyclic tetrapeptides were dissolved in dimethyl sulfoxide (DMSO), followed by addition of sterile saline (0.9%) so that the final vehicle was 50% DMSO and 50% saline, and the i.c.v. injections performed as described previously. This concentration of DMSO was not observed to have antinociceptive or behavioral effects in previous use. For per os (p.o.) administration the macrocyclic tetrapeptides were administered in 10% Solutol in 0.9% saline. All solutions for animal administration were prepared fresh daily.
The 55 °C warm-water tail-withdrawal assay was performed in mice as previously described, with the latency of the mouse to withdraw its tail from the water taken as the endpoint (a cut-off time of 15 sec was used in this assay). Antinociception was calculated according to the following formula: % antinociception = 100 × (test latency − control latency)/(15 − control latency). Tail-withdrawal data points are the means of 8–16 mice, unless otherwise indicated, with SEM shown by error bars.
All dose-response lines were analyzed by regression, and ED50 (effective dose producing 50% antinociception) values and 95% confidence intervals (C.I.) determined using individual data points from graded dose-response curves with Prism 8.0 software (GraphPad, La Jolla, CA, USA). Percent antinociception was used to determine within group effects and to allow comparison to baseline latency in tail-withdrawal experiments. The statistical significance of differences between ED50 values was determined by evaluation of the ED50 value shift via nonlinear regression modeling with Prism software. Significant differences in behavioral data were analyzed by ANOVA (one-way or two-way with repeated measures (RM), as appropriate). Significant results were further analyzed with Sidak’s, Tukey’s, or Dunnett’s multiple comparison post hoc tests, as appropriate. Data for conditioned place preference experiments were analyzed by two-way RM ANOVA, with analyses examining the main effect of conditioned place preference phase (e.g., pre- or post-conditioning) and the interaction of drug pretreatment. Significant effects were further analyzed using Sidak’s HSD post hoc testing. All data are presented as mean ± SEM, with significance set at p < 0.05.

C57BL/6J mice [3] = test: Opioid receptor involvement in antinociception (antagonist pretreatment, tail-withdrawal assay); format: in vivo, mouse; settings: i.c.v. (1, 3, 4, 5 at 10 nmol, 2 at 100 nmol); pretreatment with β-FNA, nor-BNI or naltrindole
DOR = target: T2, DOR (Mus musculus, UniProt P32300); test: Antagonist activity against DOR-selective agonist SNC-80 (tail-withdrawal assay); format: in vivo; settings: stereoisomer 100 nmol i.c.v. pretreatment; SNC-80 100 nmol i.c.v.
T2 construct: from tissue; host or cells: whole animal, C57BL/6J mice
T2 sequence (P32300 whole entry): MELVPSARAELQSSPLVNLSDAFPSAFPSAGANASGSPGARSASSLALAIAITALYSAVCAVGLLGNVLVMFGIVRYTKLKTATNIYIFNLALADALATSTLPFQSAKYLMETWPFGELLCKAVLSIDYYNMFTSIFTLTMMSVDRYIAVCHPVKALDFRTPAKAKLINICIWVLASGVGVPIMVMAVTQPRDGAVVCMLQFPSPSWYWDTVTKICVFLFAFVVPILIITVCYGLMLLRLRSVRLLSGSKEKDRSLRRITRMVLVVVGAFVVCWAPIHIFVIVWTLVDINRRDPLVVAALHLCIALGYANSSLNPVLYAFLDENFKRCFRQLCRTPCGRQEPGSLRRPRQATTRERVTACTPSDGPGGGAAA

rat KOR [4] = target: T3, rat KOR (Rattus norvegicus, UniProt P34975); settings: ratio Ki(MOR)/Ki(KOR)
T3 sequence (P34975 whole entry): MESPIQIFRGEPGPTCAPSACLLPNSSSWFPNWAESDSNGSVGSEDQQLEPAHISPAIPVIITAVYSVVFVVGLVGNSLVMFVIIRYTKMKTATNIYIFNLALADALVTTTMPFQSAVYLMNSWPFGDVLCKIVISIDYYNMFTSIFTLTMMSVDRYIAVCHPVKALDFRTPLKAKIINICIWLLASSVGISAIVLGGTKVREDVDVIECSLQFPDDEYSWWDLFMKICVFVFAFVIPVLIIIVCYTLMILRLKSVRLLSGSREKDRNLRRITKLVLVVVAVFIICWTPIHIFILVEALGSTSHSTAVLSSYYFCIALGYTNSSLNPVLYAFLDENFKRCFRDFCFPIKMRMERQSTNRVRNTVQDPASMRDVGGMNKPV

C57BL/6J mice [5] = settings: mouse, in vivo
C57BL/6J mice [6] = settings: mouse, in vivo; remark: listed apart in the source
C57BL/6J mice [7] = settings: mouse, in vivo; remark: listed apart in the source
rat KOR [8] = target: T3, rat KOR; test: biochemical
C57BL/6J mice [9] = test: Acute antinociceptive tolerance (tail-withdrawal assay, dosing at 0 and 8 h); settings: i.c.v.; for Fold-Shift, Naïve ED50 vs. Second ED50: 0 h vs 8 h; for ED50 (95% C.I.) Pretreated Mice: 8 h after pretreatment with ED50 dose of the same compound, * significantly different from naïve; for acute antinociceptive tolerance: ED50 at 8 h vs 0 h; for Naïve ED50 (95% C.I.): naïve C57BL/6J mice, tail-withdrawal assay
mouse DOR = settings: radioligand binding; ref [19]; cited from earlier work
[10] = design: method as in Khaliq et al., manuscript in preparation; settings: ref Khaliq et al., manuscript in preparation; cited from earlier work
C57BL/6J mice [11] = settings: mice, ref [19], [20], cited from earlier work
C57BL/6J mice [12] = settings: ref [19], [20]; cited from earlier work
C57BL/6J mice [13] = test: Conditioned place preference / aversion assay; settings: 10 mg/kg, i.p., two-day place conditioning
C57BL/6J mice [14] = test: Respiration and ambulation, CLAMS/Oxymax system; settings: 10 mg/kg, i.p.; 60 min

T1 sequence (P33535 whole entry): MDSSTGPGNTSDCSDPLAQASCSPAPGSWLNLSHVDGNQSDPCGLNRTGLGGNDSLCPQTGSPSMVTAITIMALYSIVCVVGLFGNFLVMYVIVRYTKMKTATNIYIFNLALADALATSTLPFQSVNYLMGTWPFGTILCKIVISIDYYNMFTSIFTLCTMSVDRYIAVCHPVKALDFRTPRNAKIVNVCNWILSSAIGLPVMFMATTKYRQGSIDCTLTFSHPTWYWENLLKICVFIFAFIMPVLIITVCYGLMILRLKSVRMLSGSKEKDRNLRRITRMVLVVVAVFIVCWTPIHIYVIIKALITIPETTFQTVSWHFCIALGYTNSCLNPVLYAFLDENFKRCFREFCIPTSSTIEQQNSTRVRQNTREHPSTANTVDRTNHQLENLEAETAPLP

## O=C1N[C@H](Cc2ccccc2)C(=O)N[C@H](Cc2c[nH]c3ccccc23)C(=O)N[C@@H](Cc2ccccc2)C(=O)N2CCC[C@H]12 (single isomer, unassigned) [Stereoisomer 5, cyclo[Phe-D-Pro-D-Phe-D-Trp]]
Rat MOR
  Ki: 5800 ± 1450 nM
[1]
  half-life at 5 µM: 15 min
C57BL/6J mice [2]; after i.c.v. administration
  time of peak antinociception: 30 min
C57BL/6J mice [2]; i.c.v. administration
  duration of significant antinociception: 90 min
C57BL/6J mice [2]; i.c.v., C57BL/6J mice, antinociception at peak response
  ED50 (and 95% C.I.) i.c.v.: 0.56 (0.38–0.91) nmol
C57BL/6J mice [2]; p.o.
  antinociceptive efficacy: full antinociception
C57BL/6J mice [2]; p.o. administration
  time of peak antinociception: 20 to 30 min
C57BL/6J mice [2]; p.o., C57BL/6J mice, antinociception at peak response
  ED50 (and 95% C.I.) p.o.: 4.72 (3.70–6.39) mg/kg
C57BL/6J mice [3]
  Receptors Involved (in antinociception): all three opioid receptors contributed to the antinociception; also recorded: KOR, MOR, DOR
DOR
  antagonism of SNC-80 antinociception (DOR antagonist activity): significantly antagonized SNC-80
Rat KOR [4]
  Selectivity Ki (MOR) Ki (KOR): 16
C57BL/6J mice [5]
  effect on coordinated locomotor performance (rotarod) vs vehicle: lacked any significant effect
C57BL/6J mice [6]
  effect on respiration rate vs vehicle: significant decreases in respiration rates
C57BL/6J mice [7]
  conditioned place preference or aversion: no significant preference or aversion
Rat KOR [8]
  Ki: 353 ± 19 nM
C57BL/6J mice [9]
  Fold-Shift, Naïve ED50 vs. Second ED50: 1.09 fold
  ED50 (95% C.I.) Pretreated Mice: 0.49 (0.09–1.36) nmol
  acute antinociceptive tolerance: Neither stereoisomer 4 or 5 demonstrated any significant changes in the ED50 values
  Naïve ED50 (95% C.I.): 0.45 (0.28–0.70) nmol

## O=C1N[C@@H](Cc2ccccc2)C(=O)N2CCC[C@@H]2C(=O)N[C@@H](Cc2ccccc2)C(=O)N[C@H]1Cc1c[nH]c2ccccc12 [CJ-15,208, cyclo[Phe-D-Pro-Phe-Trp]]
Rat MOR
  Ki: 451 ± 114 nM
Rat KOR [4]
  Selectivity Ki (MOR) Ki (KOR): 16.5
Mouse DOR
  affinity for DOR: negligible affinity for DOR
[10]
  half-life in mouse liver microsomes: 49 min
C57BL/6J mice [11]; i.c.v.
  ED50 (and 95% C.I.) i.c.v.: 1.74 (0.62–4.82) nmol
C57BL/6J mice [11]; p.o.
  ED50 (and 95% C.I.) p.o.: 3.49 (1.98–5.73) mg/kg
C57BL/6J mice [12]
  Receptors Involved (in antinociception): KOR, MOR
Rat KOR [8]
  Ki: 27.4 ± 4.6 nM
C57BL/6J mice [9]
  Fold-Shift, Naïve ED50 vs. Second ED50: 2.87 fold
  ED50 (95% C.I.) Pretreated Mice: 5.23 (4.23–6.48) nmol
  Naïve ED50 (95% C.I.): 1.82 (1.22–2.74) nmol

## CN1CC[C@]23c4c5ccc(O)c4O[C@H]2[C@@H](O)C=C[C@H]3[C@H]1C5 [Morphine, morphine, reference compound]
C57BL/6J mice [13]
  conditioned place preference or aversion: significant place-preference for the morphine-paired chamber
C57BL/6J mice [14]
  effect on ambulation vs vehicle: robust, significant increases in ambulation
  effect on respiration rate vs vehicle: significant, time-dependent respiratory depression
C57BL/6J mice [9]
  Fold-Shift, Naïve ED50 vs. Second ED50: 7.63 fold
  acute antinociceptive tolerance: demonstrated acute antinociceptive tolerance
  Naïve ED50 (95% C.I.): 2.91 (2.48–3.41) nmol
